Molecules are shown by their SMILES. Some results are limits rather than exact numbers.

The assay relates to LG0703-F948-PDC complex spheroid viability. The assay can be described thus: Anticancer human tumor LG0703-F948-PDC patient-derived lung adenocarcinoma cell line growth inhibition [RAS]. The settings on record: for IC50: curve of first compound; for viability, T/C: stronger effect = lower value. The source says: RAS pathway inhibitors in Combinations in Complex Spheroids
A high-throughput screen of multi-cell type tumor spheroids was designed to identify active combinations of RAS pathway inhibitors and targeted small molecules. Complex spheroids include a stromal component modeled by human endothelial cells (HUVEC) and fibroblasts modeled by human mesenchymal stem cells (MSCs). The concentration ranges selected for each drug and investigational agent were based upon clinically achievable concentrations if the clinical Cmax of the agent was known.
Compounds. The drugs and investigational agents: abemaciclib (NSC768073), cobimetinib (NSC768068), divarasib (GDC6063, NSC841802), docetaxel (NSC628503), GDC-1971 (RLY-1971, NSC841576), gemcitabine (NSC613327), inavolisib (NSC800729), ipatasertib (NSC767898), KB-0742 (NSC834161), MRTX-1133 (NSC836407), osimertinib (NSC779217), RMC-4630 (NSC839698), RMC-6236 (NSC851965), RMC-6291 (NSC852671), Ro-3306 (NSC812927), sapanisertib (NSC764658), SN-38 (NSC673596), staurosporine (NSC755774), SY5609 (NSC837396), and tovorafenib (DAY101, NSC766906), were obtained from the National Cancer Institute (NCI) Developmental Therapeutics Program Chemical Repository. The FDA-approved anticancer drug set is available from the NCI Developmental Therapeutics Program. […] The stock solutions were prepared in dimethyl sulfoxide (DMSO, Sigma-Aldrich, St. Louis, MO, cat. D2650) at 800-fold the tested concentration and stored at -70 degrees C prior to their use. All drugs and investigational agents were tested over a range starting from a high concentration at or near the clinical Cmax and decreasing in half-log increments. If the clinical Cmax for an agent had not been determined, the highest concentration tested was 10 microM.
Cell Culture. All cells were maintained in an incubator at 37 degrees C and 5% CO2 with 95% humidity. The PDC lines were cultured according to standard operating procedures established by the NCI PDMR. All PDCs were thawed and cultured in Matrigel-coated flasks prepared with a working solution of 1X Ham's F-12 nutrient mix, without supplementation (Invitrogen, Waltham, MA, cat. 11765054), 100 U/mL penicillin-streptomycin (Invitrogen, cat. 15140122), and 2.5% Matrigel (Corning Inc., Corning, NY, cat. 354248) for the first three passages. The 362531-283-R-J2-PDC and 782815-120-R-J1-PDC lines were cultured in 6C/Colon 1B media, which includes advanced DMEM/F-12 (Thermo Fisher Scientific, cat. 12634028), 10 mM HEPES (Thermo Fisher Scientific, cat. 15630080), 1X GlutaMAX supplement (Thermo Fisher Scientific, cat. 35050061), 0.1 mg/mL primocin (InvivoGen, San Diego, CA, cat. ant-pm-2), 10% defined fetal bovine serum, heat inactivated (HyClone Laboratories Inc., Logan, UT, cat. SH30070.03HI), 50% L-WRN conditioned media (ATCC, cat. CRL-3276), 1.25 mM N-Acetyl-L-cysteine (Sigma-Aldrich, cat. A9165), 10 mM nicotinamide (Sigma-Aldrich, cat. N0636), 1X B-27 supplement (Thermo Fisher Scientific, cat. 17504044), 1X N-2 supplement (Thermo Fisher Scientific, cat. 17502048), 50 ng/mL human EGF (Thermo Fisher Scientific, cat. PHG0311), and 10 microM Y-27632 dihydrochloride (Tocris Bioscience, cat. 1254). The K12877-001-R-J1-PDC line was cultured in 6I media, which includes all 6C/Colon 1B media plus 10 ng/mL human FGF-10 (PeproTech, cat. 100-26), 1 ng/mL human FGF-2 (PeproTech, cat. 100-18B), 1 µM prostaglandin E2 (Tocris Bioscience, cat. 2296), […] hydrocortisone (Sigma-Aldrich, cat. H4001), and […] bovine insulin (Sigma-Aldrich, cat. I6634). The K86415-001-R-J1-PDC line was cultured in 6D media, which includes all 6C/Colon 1B media components minus the L-WRN conditioned media. The 485176-168-R4-J1-PDC was cultured in PANC media, which includes all 6C/Colon 1B media plus 100 ng/mL human FGF-10 (PeproTech, cat. 100-26), 500 nM SB-431542 (Selleckchem, cat. S1067), and 10 nM gastrin (Tocris Bioscience, cat. 3006). […]
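Note: spheroids exposed to agents for 7 days.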
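Throughout, for viability, T/C: 100% = DMSO vehicle wells.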

`C=CC(=O)N1CCN(c2nc(OCC3CCCN3C)nc3c(F)c(-c4nc(N)cc(C)c4C(F)(F)F)c(Cl)cc23)C(C)C1` (configuration not stated) + CCn1c(-c2cc(N3CCN(C)CC3)cnc2C(C)OC)c2c3cc(ccc31)-c1csc(n1)CC(NC(=O)C1CC1C)C(=O)N1CCCC(N1)C(=O)OCC(C)(C)C2: the IC50 (as a rule, the concentration that gives 50% inhibition) runs as follows: (second compound 0.000949 µM) above 1000 nM; (second compound 0.003 µM) below 3.16 nM; (second compound 0.00949 µM) below 3.16 nM; (second compound 0.03 µM) below 3.16 nM; (second compound 0.0949 µM) below 3.16 nM; (second compound 0.3 µM) below 3.16 nM. Further, the viability, T/C (usually the result in the treated group divided by that in the control group, in per cent) (second compound 0.000949 µM, first compound 0.00316 µM) was 68%; the viability, T/C (second compound 0.000949 µM, first compound 0.01 µM) was 75.1%; the viability, T/C (second compound 0.000949 µM, first compound 0.0316 µM) was 71%; the viability, T/C (second compound 0.000949 µM, first compound 0.1 µM) was 66.5%; the viability, T/C (second compound 0.000949 µM, first compound 0.316 µM) was 69.9%; the viability, T/C (second compound 0.000949 µM, first compound 1 µM) was 62.6%. Besides, the viability, T/C reads like this: (second compound 0.003 µM, first compound 0.00316 µM) 45.5%; (second compound 0.003 µM, first compound 0.01 µM) 40.5%; (second compound 0.003 µM, first compound 0.0316 µM) 43.4%; (second compound 0.003 µM, first compound 0.1 µM) 44%; (second compound 0.003 µM, first compound 0.316 µM) 47.3%; (second compound 0.003 µM, first compound 1 µM) 49%. Further, the viability, T/C is, setting by setting: (second compound 0.00949 µM, first compound 0.00316 µM) 24.9%; (second compound 0.00949 µM, first compound 0.01 µM) 26.1%; (second compound 0.00949 µM, first compound 0.0316 µM) 27.9%; (second compound 0.00949 µM, first compound 0.1 µM) 17.7%; (second compound 0.00949 µM, first compound 0.316 µM) 25.9%; (second compound 0.00949 µM, first compound 1 µM) 25.5%. Moreover, the viability, T/C is 13.4% (second compound 0.03 µM, first compound 0.00316 µM); 14.6% (second compound 0.03 µM, first compound 0.01 µM); 16.2% (second compound 0.03 µM, first compound 0.0316 µM); 13.1% (second compound 0.03 µM, first compound 0.1 µM); 18.8% (second compound 0.03 µM, first compound 0.316 µM); 13.9% (second compound 0.03 µM, first compound 1 µM). Further, the viability, T/C (second compound 0.0949 µM, first compound 0.00316 µM) is 14.2%; the viability, T/C (second compound 0.0949 µM, first compound 0.01 µM) was 16.3%; the viability, T/C (second compound 0.0949 µM, first compound 0.0316 µM) was 11.3%; the viability, T/C (second compound 0.0949 µM, first compound 0.1 µM) is 11%; the viability, T/C (second compound 0.0949 µM, first compound 0.316 µM) is 15.2%; the viability, T/C (second compound 0.0949 µM, first compound 1 µM) is 15.9%. For the same molecule, the viability, T/C is, setting by setting: (second compound 0.3 µM, first compound 0.00316 µM) 10.4%; (second compound 0.3 µM, first compound 0.01 µM) 8.07%; (second compound 0.3 µM, first compound 0.0316 µM) 9.51%; (second compound 0.3 µM, first compound 0.1 µM) 11.9%; (second compound 0.3 µM, first compound 0.316 µM) 11.5%; (second compound 0.3 µM, first compound 1 µM) 10.8%.

Turning to `CCn1c(-c2cccnc2C(C)OC)c2c3cc(ccc31)N1CCOC(CC(NC(=O)C(C(C)C)N(C)C(=O)C3(F)CCN(C(=O)C#CC(C)(C)N(C)C)CC3)C(=O)N3CCCC(N3)C(=O)OCC(C)(C)C2)C1` (configuration not stated), the viability, T/C (compound 0.000949 µM) is 99.8% [middle of 8 runs]; the viability, T/C (compound 0.00949 µM) was 101% [middle of 8 runs]; the viability, T/C (compound 0.03 µM) was 101% [middle of 8 runs]; the viability, T/C (compound 0.0949 µM) is 82.6% [middle of 8 runs]; the viability, T/C (compound 0.3 µM) was 50.1% [middle of 8 runs].

The values are drawn from PubChem BioAssay AID2060890 (Molecular Pharmacology Branch, DTP, NCI, 2025).
